One assay relates to KRas wild type. The assay can be described thus: Ras GTP Binding Domain Inhibition Assay (Ras Superfamily Assay). The settings on record: at 20 μM; for KRas wild type + SOS: % inh.: with SOS; for KRas wild type: % inh.: without SOS. A digest of the protocol:
(§1)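 Ni-plate capture of His-tagged protein (10-30 μg/mL, o/n 4° C); cpd 20 μM or dilution series, 1% DMSO, 3 h RT ± Sos 556-1049 last h; 100 nM Cy-labelled GTP 45 min RT; 3× wash; fluorescence read.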

The test system of another assay is KRas G12D mutant. Described as above. The settings on record: at 20 μM; for KRas G12D mutant + SOS: % inh.: with SOS; for KRas G12D mutant: % inh.: without SOS. An outline of the steps: as §1
Assay [1] relates to MiaPaca-2 (expressing KRAS G12C mutant). The assay is described as follows: Proliferation Assay (Cell Viability Assay). It counts as cell-based. The settings on record: Homo sapiens, MIA PaCa-2. A digest of the protocol:
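After 2–4 days' exposure at 37 °C, 5% CO2 to a single 10 μM final concentration or a dilution series (IC50), percent proliferation inhibition was derived from CellTiter 96 Aqueous One viability readings. The medium contained 0.3% DMSO and 10% FBS. KRAS G12C MiaPaca-2 cells were plated at 2000–5000/well the day before.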

Where [2] appears, read: read-out: Proliferation in MiaPaca-2: IC50.

Structures are written as SMILES. Read-outs that look alike come from different tables or passages of the source. A value given as a limit tells only on which side of the number the result lay.

In the case of `COc1ccc(F)c(-c2cn3nc(-c4nccn4C)nc(N[C@H]4C[C@H](OC)C4)c3c2-c2ccccc2)c1F` [Compound 273, 6-(2,6-Difluoro-3-methoxyphenyl)-N-((1r,3r)-3-methoxycyclobutyl)-2-(1-methyl-1H-imidazol-2-yl)-5-phenylpyrrolo[2,1-f][1,2,4]triazin-4-amine], in the assay on KRas wild type, the “KRas wild type + SOS: % inh.” value was “A (A = 1-25% inhibition)” and the “KRas wild type: % inh.” value is listed as 0 (0 = 0% inhibition). Also, in the assay with KRas G12D mutant, the “KRas G12D mutant + SOS: % inh.” value is listed as “A (A = 1-25% inhibition)” and the “KRas G12D mutant: % inh.” value is listed as “B (B = 26-49% inhibition)”. Moreover, the IC50 in assay [1] (setting [2]) was above 1000 nM.

As for `Cc1c(-c2ccn(C)n2)cn2nc(-c3nccn3C)nc(Nc3cc(-c4ccccc4)[nH]n3)c12` [Compound 263, 5-Methyl-2-(1-methyl-1H-imidazol-2-yl)-6-(1-methyl-1H-pyrazol-3-yl)-N-(5-phenyl-1H-pyrazol-3-yl)pyrrolo[2,1-f][1,2,4]triazin-4-amine], in the assay with KRas wild type, the “KRas wild type + SOS: % inh.” value is reported as “D (D = 76-100% inhibition)” and the “KRas wild type: % inh.” value was “C (C = 50-75% inhibition)”. Besides, in the assay on KRas G12D mutant, the “KRas G12D mutant + SOS: % inh.” value was “D (D = 76-100% inhibition)” and the “KRas G12D mutant: % inh.” value is “D (D = 76-100% inhibition)”. Moreover, in assay [1] (setting [2]), the IC50 was below 150 nM.

With `COc1cccc(-c2cn3nc(-c4nccn4C)nc(N[C@H]4C[C@@H](OC)C4)c3c2-c2ccccc2)c1C` [Compound 269, 6-(3-Methoxy-2-methylphenyl)-N-((1s,3s)-3-methoxycyclobutyl)-2-(1-methyl-1H-imidazol-2-yl)-5-phenylpyrrolo[2,1-f][1,2,4]triazin-4-amine], in the assay on KRas wild type, the “KRas wild type + SOS: % inh.” value is listed as “A (A = 1-25% inhibition)” and the “KRas wild type: % inh.” value is recorded as “C (C = 50-75% inhibition)”. Moreover, in the assay on KRas G12D mutant, the “KRas G12D mutant + SOS: % inh.” value is recorded as “B (B = 26-49% inhibition)” and the “KRas G12D mutant: % inh.” value is recorded as “B (B = 26-49% inhibition)”. Further, the IC50 in assay [1] (setting [2]) fell in the range of 510 to 1000 nM.

For the compound `Cc1c(-c2ccn(C)n2)cn2nc(-c3nccn3C)nc(Nc3cc(-n4ccnc4)ccn3)c12` [Compound 245, N-(4-(1H-imidazol-1-yl)pyridin-2-yl)-5-methyl-2-(1-methyl-1H-imidazol-2-yl)-6-(1-methyl-1H-pyrazol-3-yl)pyrrolo[2,1-f][1,2,4]triazin-4-amine], in the assay with KRas wild type, the “KRas wild type + SOS: % inh.” value is given as “B (B = 26-49% inhibition)” and the “KRas wild type: % inh.” value is “A (A = 1-25% inhibition)”. Moreover, in the assay with KRas G12D mutant, the “KRas G12D mutant + SOS: % inh.” value is “C (C = 50-75% inhibition)” and the “KRas G12D mutant: % inh.” value is recorded as “C (C = 50-75% inhibition)”. Besides, in assay [1] (setting [2]), the IC50 is below 150 nM.

`COc1cc(Nc2nc(-c3nccn3C)nn3cc(-c4ccn(C)n4)c(C)c23)ncc1-n1cnc(C)c1` [Compound 244, N-(4-Methoxy-5-(4-methyl-1H-imidazol-1-yl)pyridin-2-yl)-5-methyl-2-(1-methyl-1H-imidazol-2-yl)-6-(1-methyl-1H-pyrazol-3-yl)pyrrolo[2,1-f][1,2,4]triazin-4-amine]: in the assay with KRas wild type, the “KRas wild type + SOS: % inh.” value is on record as “D (D = 76-100% inhibition)” and the “KRas wild type: % inh.” value is given as “C (C = 50-75% inhibition)”. In the assay on KRas G12D mutant, the “KRas G12D mutant + SOS: % inh.” value is recorded as “D (D = 76-100% inhibition)” and the “KRas G12D mutant: % inh.” value is recorded as “D (D = 76-100% inhibition)”. In assay [1] (setting [2]), the IC50 is below 150 nM.

Take `Cc1c(-c2ccn(C)n2)cn2nc(-c3nccn3C)nc(Nc3cc(-c4ccccn4)[nH]n3)c12` [Compound 265, 5-Methyl-2-(1-methyl-1H-imidazol-2-yl)-6-(1-methyl-1H-pyrazol-3-yl)-N-(5-(pyridin-2-yl)-1H-pyrazol-3-yl)pyrrolo[2,1-f][1,2,4]triazin-4-amine]: in the assay with KRas wild type, the “KRas wild type + SOS: % inh.” value is recorded as “D (D = 76-100% inhibition)”. Moreover, in the assay with KRas G12D mutant, the “KRas G12D mutant + SOS: % inh.” value is “D (D = 76-100% inhibition)” and the “KRas G12D mutant: % inh.” value is “C (C = 50-75% inhibition)”. For the same compound, in assay [1] (setting [2]), the IC50 was below 150 nM.

For `Cc1c(-c2ccn(C)n2)cn2nc(-c3nccn3C)nc(Nc3cc(C(F)F)[nH]n3)c12` [Compound 258, N-(5-(Difluoromethyl)-1H-pyrazol-3-yl)-5-methyl-2-(1-methyl-1H-imidazol-2-yl)-6-(1-methyl-1H-pyrazol-3-yl)pyrrolo[2,1-f][1,2,4]triazin-4-amine], in the assay with KRas wild type, the “KRas wild type + SOS: % inh.” value is reported as 0 (0 = 0% inhibition) and the “KRas wild type: % inh.” value is given as “A (A = 1-25% inhibition)”. Moreover, in the assay with KRas G12D mutant, the “KRas G12D mutant + SOS: % inh.” value was 0 (0 = 0% inhibition) and the “KRas G12D mutant: % inh.” value is reported as 0 (0 = 0% inhibition). For the same compound, the IC50 in assay [1] (setting [2]) is above 1000 nM.

For the compound `Cc1c(-c2ccn(C)n2)cn2nc(-c3nccn3C)nc(-n3[nH]c(N)cc3=O)c12` [Compound 261, 5-Amino-2-(5-methyl-2-(1-methyl-1H-imidazol-2-yl)-6-(1-methyl-1H-pyrazol-3-yl)pyrrolo[2,1-f][1,2,4]triazin-4-yl)-1,2-dihydro-3H-pyrazol-3-one], in the assay on KRas wild type, the “KRas wild type + SOS: % inh.” value is “C (C = 50-75% inhibition)” and the “KRas wild type: % inh.” value was “C (C = 50-75% inhibition)”. In the assay on KRas G12D mutant, the “KRas G12D mutant + SOS: % inh.” value was “C (C = 50-75% inhibition)” and the “KRas G12D mutant: % inh.” value is on record as “D (D = 76-100% inhibition)”. Further, in assay [1] (setting [2]), the IC50 is above 1000 nM.

Take `Cc1c(-c2ccn(C)n2)cn2nc(-c3nccn3C)nc(Nc3cc(-c4cccnc4)[nH]n3)c12` [Compound 264, 5-Methyl-2-(1-methyl-1H-imidazol-2-yl)-6-(1-methyl-1H-pyrazol-3-yl)-N-(5-(pyridin-3-yl)-1H-pyrazol-3-yl)pyrrolo[2,1-f][1,2,4]triazin-4-amine]: in the assay on KRas wild type, the “KRas wild type + SOS: % inh.” value was “D (D = 76-100% inhibition)” and the “KRas wild type: % inh.” value was “C (C = 50-75% inhibition)”. In the assay with KRas G12D mutant, the “KRas G12D mutant + SOS: % inh.” value is reported as “D (D = 76-100% inhibition)” and the “KRas G12D mutant: % inh.” value is on record as “C (C = 50-75% inhibition)”. The IC50 in assay [1] (setting [2]) was 150 to 500 nM.

As for `Cc1c(-c2ccn(C)n2)cn2nc(-c3nccn3C)nc(Nc3cc(-c4ccccn4)ccn3)c12` [Compound 248, N-([2,4′-Bipyridin]-2′-yl)-5-methyl-2-(1-methyl-1H-imidazol-2-yl)-6-(1-methyl-1H-pyrazol-3-yl)pyrrolo[2,1-f][1,2,4]triazin-4-amine], in the assay on KRas wild type, the “KRas wild type + SOS: % inh.” value is “D (D = 76-100% inhibition)” and the “KRas wild type: % inh.” value was “D (D = 76-100% inhibition)”. Besides, in the assay on KRas G12D mutant, the “KRas G12D mutant + SOS: % inh.” value was “D (D = 76-100% inhibition)” and the “KRas G12D mutant: % inh.” value was “D (D = 76-100% inhibition)”. Besides, in assay [1] (setting [2]), the IC50 was below 150 nM.

Turning to `CO[C@H]1C[C@H](Nc2nc(-c3nccn3C)nn3cc(-c4ccn(C)n4)c(C4CC4)c23)C1` [Compound 275, 5-Cyclopropyl-N-((1r,3r)-3-methoxycyclobutyl)-2-(1-methyl-1H-imidazol-2-yl)-6-(1-methyl-1H-pyrazol-3-yl)pyrrolo[2,1-f][1,2,4]triazin-4-amine], in the assay on KRas wild type, the “KRas wild type + SOS: % inh.” value is given as 0 (0 = 0% inhibition) and the “KRas wild type: % inh.” value was “A (A = 1-25% inhibition)”. Also, in the assay with KRas G12D mutant, the “KRas G12D mutant + SOS: % inh.” value is listed as “A (A = 1-25% inhibition)” and the “KRas G12D mutant: % inh.” value is “A (A = 1-25% inhibition)”. Moreover, the IC50 in assay [1] (setting [2]) is above 1000 nM.

As to `Cc1c(-c2ccn(C)n2)cn2nc(-c3nccn3C)nc(Nc3cc(OC(F)F)n(C)n3)c12` [Compound 254, N-(5-(Difluoromethoxy)-1-methyl-1H-pyrazol-3-yl)-5-methyl-2-(1-methyl-1H-imidazol-2-yl)-6-(1-methyl-1H-pyrazol-3-yl)pyrrolo[2,1-f][1,2,4]triazin-4-amine], in the assay with KRas wild type, the “KRas wild type + SOS: % inh.” value is given as “D (D = 76-100% inhibition)” and the “KRas wild type: % inh.” value is listed as “D (D = 76-100% inhibition)”. Further, in the assay on KRas G12D mutant, the “KRas G12D mutant + SOS: % inh.” value is “D (D = 76-100% inhibition)” and the “KRas G12D mutant: % inh.” value was “D (D = 76-100% inhibition)”. In assay [1] (setting [2]), the IC50 is above 1000 nM.

For the compound `Cc1c(-c2ccn(C)n2)cn2nc(-c3nccn3C)nc(Nc3ccc(-c4ccccn4)cn3)c12` [Compound 249, N-([2,3′-Bipyridin]-6′-yl)-5-methyl-2-(1-methyl-1H-imidazol-2-yl)-6-(1-methyl-1H-pyrazol-3-yl)pyrrolo[2,1-f][1,2,4]triazin-4-amine], in the assay on KRas wild type, the “KRas wild type + SOS: % inh.” value is recorded as “C (C = 50-75% inhibition)” and the “KRas wild type: % inh.” value is “C (C = 50-75% inhibition)”. Further, in the assay with KRas G12D mutant, the “KRas G12D mutant + SOS: % inh.” value is “C (C = 50-75% inhibition)” and the “KRas G12D mutant: % inh.” value is “C (C = 50-75% inhibition)”. The IC50 in assay [1] (setting [2]) was below 150 nM.

`Cc1[nH]nc(Nc2nc(-c3nccn3C)nn3cc(-c4ccn(C)n4)c(C)c23)c1C` [Compound 267, N-(4,5-Dimethyl-1H-pyrazol-3-yl)-5-methyl-2-(1-methyl-1H-imidazol-2-yl)-6-(1-methyl-1H-pyrazol-3-yl)pyrrolo[2,1-f][1,2,4]triazin-4-amine]: in the assay on KRas wild type, the “KRas wild type + SOS: % inh.” value is recorded as “D (D = 76-100% inhibition)” and the “KRas wild type: % inh.” value is “D (D = 76-100% inhibition)”. In the assay with KRas G12D mutant, the “KRas G12D mutant + SOS: % inh.” value was “D (D = 76-100% inhibition)” and the “KRas G12D mutant: % inh.” value is “D (D = 76-100% inhibition)”. Also, the IC50 in assay [1] (Proliferation assay, MiaPaca-2, read-out: MiaPaca-2 IC50 (nM) Pancreatic) fell in the range of 1 to 10 nM. Besides, the IC50 in assay [1] (setting [2]) was below 150 nM.
